Legend:
HBEC-30KT = experiment: MTS viability assay; assay type: cell-based, human; details: Homo sapiens, 96 h, Patient A normal line, 4 days, read-out: Antiproliferative activity IC50, HBEC-30KT
Description: (§1) Lung cancer cells (kindly provided by Dr. John D. Minna, [13, 21]) were maintained in RPMI 1640 media supplemented with 10% FBS. Immortalized normal human bronchial epithelial cells (also provided by Dr. John D. Minna) were cultured in KSFM supplemented with pituitary extract and EGF. For viability assays, cells were plated on 96 well plates and grown overnight. Cells were then exposed to increasing doses of the indicated compounds for 4 days and their viability assayed using the Promega Cell Titer 96 AQueous One kit per the manufacturer’s protocol. All doses were tested in 4–8 replicates. IC50 values were calculated using the in-house software DIVISA.

HBEC-34KT = experiment: MTS viability assay; assay type: cell-based, human; details: Homo sapiens, 96 h, Patient B normal line, 4 days, read-out: Antiproliferative activity IC50, HBEC-34KT
Description: as §1

[1] = tested on: 60 human tumor cell lines; experiment: NCI 60 human tumor cell line screen; assay type: cell-based; details: for GI50: Homo sapiens, 60 cell, read-out: MID (average GI50 across the 60 cell lines); for average growth inhibition: single dose of 10 μm, 60 cell line panel
Description: To evaluate if the antiproliferative activity of the novel hydroxamic acid derived compounds was general across cancer types, selected compounds were submitted for testing in the tissue-specific panel of human tumor cell lines at the National Cancer Institute, Bethesda, USA. This screen utilizes 60 human tumor cell lines, representing leukemia, melanoma and cancers of the lung, colon, brain, ovary, kidney, prostate and breast. This cell line panel offers the advantage of having available microarray gene expression data across the 60 cell lines which can be used to determine the uniqueness of a new lead for which the molecular target(s) might not be known. The antitumor activity is presented for each cell line by three parameters, namely log10 GI50 value (GI50 = molar concentration of the compound that inhibits 50% net cell growth), log10 TG value (TGI = molar concentration of the compound leading to total inhibition of net cell growth), and log10 LC50 value (LC50 = molar concentration of the compound leading to 50% net cell death) accompanied by MID which refers to the average inhibitory value across the 60 cell lines.
In this assay, compounds 9c (NSC 747073) and 9d (NSC 747072) inhibited the proliferation of subsets of leukemia, colon, CNS, melanoma, and prostrate cancer cells to a higher extent than cells from other cancers (Fig 6A and 6B).

Leukemia cell lines = experiment: NCI 60 screen, five dose; assay type: cell-based, human; details: for GI50: Homo sapiens; for no. cell lines used for the assay/no inhibited by compound: figures in parenthesis
Breast cancer cell lines = experiment: NCI 60 screen, five dose; assay type: cell-based, human; details: for GI50: Homo sapiens; for no. cell lines used for the assay/no inhibited by compound: figures in parenthesis
CCRF-CEM = experiment: NCI 60 screen, five dose; assay type: cell-based; details: Homo sapiens, Leukemia, GI50 = molar concentration, read-out: Log10 GI50 (converted)
HOP-92 = experiment: NCI 60 screen, five dose; assay type: cell-based; details: Homo sapiens, Non-Small Cell Lung Cancer, GI50 = molar concentration, read-out: Log10 GI50 (converted)
NCI-H226 = experiment: NCI 60 screen, five dose; assay type: cell-based; details: Homo sapiens, Non-Small Cell Lung Cancer, GI50 = molar concentration, read-out: Log10 GI50 (converted)
NCI-H522 = experiment: NCI 60 screen, five dose; assay type: cell-based; details: Homo sapiens, Non-Small Cell Lung Cancer, GI50 = molar concentration, read-out: Log10 GI50 (converted)
COLO 205 = experiment: NCI 60 screen, five dose; assay type: cell-based; details: Homo sapiens, Colon Cancer, GI50 = molar concentration, read-out: Log10 GI50 (converted)
HCC-2998 = experiment: NCI 60 screen, five dose; assay type: cell-based; details: Homo sapiens, Colon Cancer, GI50 = molar concentration, read-out: Log10 GI50 (converted)
HCT-116 = experiment: NCI 60 screen, five dose; assay type: cell-based; details: Homo sapiens, Colon Cancer, GI50 = molar concentration, read-out: Log10 GI50 (converted)
HCT-15 = experiment: NCI 60 screen, five dose; assay type: cell-based; details: Homo sapiens, Colon Cancer, GI50 = molar concentration, read-out: Log10 GI50 (converted)
KM12 = experiment: NCI 60 screen, five dose; assay type: cell-based; details: Homo sapiens, Colon Cancer, GI50 = molar concentration, read-out: Log10 GI50 (converted)
SW-620 = experiment: NCI 60 screen, five dose; assay type: cell-based; details: Homo sapiens, Colon Cancer, GI50 = molar concentration, read-out: Log10 GI50 (converted)
SF-295 = experiment: NCI 60 screen, five dose; assay type: cell-based; details: Homo sapiens, CNS Cancer, GI50 = molar concentration, read-out: Log10 GI50 (converted)
SF-539 = experiment: NCI 60 screen, five dose; assay type: cell-based; details: Homo sapiens, CNS Cancer, GI50 = molar concentration, read-out: Log10 GI50 (converted)
SNB-19 = experiment: NCI 60 screen, five dose; assay type: cell-based; details: Homo sapiens, CNS Cancer, GI50 = molar concentration, read-out: Log10 GI50 (converted)
LOX IMVI = experiment: NCI 60 screen, five dose; assay type: cell-based; details: Homo sapiens, Melanoma, GI50 = molar concentration, read-out: Log10 GI50 (converted)
M14 = experiment: NCI 60 screen, five dose; assay type: cell-based; details: Homo sapiens, Melanoma, GI50 = molar concentration, read-out: Log10 GI50 (converted)
SK-MEL-2 = experiment: NCI 60 screen, five dose; assay type: cell-based; details: Homo sapiens, Melanoma, GI50 = molar concentration, read-out: Log10 GI50 (converted)
SK-MEL-28 = experiment: NCI 60 screen, five dose; assay type: cell-based; details: Homo sapiens, Melanoma, GI50 = molar concentration, read-out: Log10 GI50 (converted)
SK-MEL-5 = experiment: NCI 60 screen, five dose; assay type: cell-based; details: Homo sapiens, Melanoma, GI50 = molar concentration, read-out: Log10 GI50 (converted)
IGROV1 = experiment: NCI 60 screen, five dose; assay type: cell-based; details: Homo sapiens, IGROV-1, Ovarian Cancer, GI50 = molar concentration, read-out: Log10 GI50 (converted)
OVCAR-4 = experiment: NCI 60 screen, five dose; assay type: cell-based; details: Homo sapiens, Ovarian Cancer, GI50 = molar concentration, read-out: Log10 GI50 (converted)
OVCAR-5 = experiment: NCI 60 screen, five dose; assay type: cell-based; details: Homo sapiens, Ovarian Cancer, GI50 = molar concentration, read-out: Log10 GI50 (converted)
OVCAR-8 = experiment: NCI 60 screen, five dose; assay type: cell-based; details: Homo sapiens, Ovarian Cancer, GI50 = molar concentration, read-out: Log10 GI50 (converted)
A498 = experiment: NCI 60 screen, five dose; assay type: cell-based; details: Homo sapiens, Renal Cancer, GI50 = molar concentration, read-out: Log10 GI50 (converted)
ACHN = experiment: NCI 60 screen, five dose; assay type: cell-based; details: Homo sapiens, Renal Cancer, GI50 = molar concentration, read-out: Log10 GI50 (converted)
RXF 393 = experiment: NCI 60 screen, five dose; assay type: cell-based; details: Homo sapiens, Renal Cancer, GI50 = molar concentration, read-out: Log10 GI50 (converted)
TK-10 = experiment: NCI 60 screen, five dose; assay type: cell-based; details: Homo sapiens, Renal Cancer, GI50 = molar concentration, read-out: Log10 GI50 (converted)
UO-31 = experiment: NCI 60 screen, five dose; assay type: cell-based; details: Homo sapiens, Renal Cancer, GI50 = molar concentration, read-out: Log10 GI50 (converted)
PC-3 = experiment: NCI 60 screen, five dose; assay type: cell-based; details: Homo sapiens, Prostate Cancer, GI50 = molar concentration, read-out: Log10 GI50 (converted)
DU-145 = experiment: NCI 60 screen, five dose; assay type: cell-based; details: Homo sapiens, Prostate Cancer, GI50 = molar concentration, read-out: Log10 GI50 (converted)

SMILES	IC50 (HBEC-30KT) [µM]	IC50 (HBEC-34KT) [µM]	GI50 ([1]; five dose assay) [µM]	average growth inhibition [1] [%]	GI50 (Leukemia cell lines) [µM]	no. cell lines used for the assay/no inhibited by compound (Leukemia cell lines)	GI50 (Breast cancer cell lines) [µM]	no. cell lines used for the assay/no inhibited by compound (Breast cancer cell lines)	GI50 (CCRF-CEM) [µM]	GI50 (HOP-92) [µM]	GI50 (NCI-H226) [µM]	GI50 (NCI-H522) [µM]	GI50 (COLO 205) [µM]	GI50 (HCC-2998) [µM]	GI50 (HCT-116) [µM]	GI50 (HCT-15) [µM]	GI50 (KM12) [µM]	GI50 (SW-620) [µM]	GI50 (SF-295) [µM]	GI50 (SF-539) [µM]	further results
Cn1c(N2CCN(S(=O)(=O)c3ccc(C(=O)NO)cc3)CC2)nc2ccccc21 [Compound 9b, 4-[4-(1-methylbenzimidazol-2-yl)piperazin-1-yl]sulfonylbenzenecarbohydroxamic acid]	> 10	> 10	–	–	–	–	–	–	–	–	–	–	–	–	–	–	–	–	–	–	–
O=C(NO)c1ccc(S(=O)(=O)N2CCN(c3nc4ccccc4o3)CC2)cc1 [Compound 9c, 4-(4-Benzoxazol-2-yl-piperazin-1-sulfonyl)-N -hydroxy-benzamid]	> 10	> 10	6.61	50	2.24	4/4	8.71	2/7	1.78	6.03	20.9	6.03	1.7	17.4	4.07	18.2	5.13	4.37	3.09	3.72	GI50 (SNB-19): 10 µM; GI50 (LOX IMVI): 10.7 µM; GI50 (M14): 5.89 µM; GI50 (SK-MEL-2): 16.2 µM; GI50 (SK-MEL-28): 4.57 µM; GI50 (SK-MEL-5): 5.62 µM; GI50 (IGROV1): 11 µM; GI50 (OVCAR-4): 4.9 µM; GI50 (OVCAR-5): 10.2 µM; GI50 (OVCAR-8): 3.24 µM; GI50 (A498): 2.82 µM; GI50 (ACHN): 21.4 µM; GI50 (RXF 393): 4.47 µM; GI50 (TK-10): 7.94 µM; GI50 (UO-31): 10.7 µM; GI50 (PC-3): 3.24 µM; GI50 (DU-145): 7.41 µM
O=C(NO)c1ccc(S(=O)(=O)N2CCN(c3nc4ccccc4s3)CC2)cc1 [Compound 9d, 4-(4-Benzothiazol-2-yl-piperazin-1-sulfonyl)-N -hydroxy-benzamid]	5.37	8.22	3.16	62	1.77	5/5	3.88	4/7	1.82	2.57	10	2.29	3.02	2.14	1.7	3.98	2.14	1.66	1.86	2.34	more potent overall by a factor, compared to 9c ([1]; MID, five dose assay): 2; GI50 (SNB-19): 5.37 µM; GI50 (LOX IMVI): 2.51 µM; GI50 (M14): 1.62 µM; GI50 (SK-MEL-2): 6.31 µM; GI50 (SK-MEL-28): 1.58 µM; GI50 (SK-MEL-5): 3.98 µM; GI50 (IGROV1): 3.55 µM; GI50 (OVCAR-4): 3.8 µM; GI50 (OVCAR-5): 7.76 µM; GI50 (OVCAR-8): 1.7 µM; GI50 (A498): 1.82 µM; GI50 (ACHN): 4.57 µM; GI50 (RXF 393): 2 µM; GI50 (TK-10): 3.63 µM; GI50 (UO-31): 4.37 µM; GI50 (PC-3): 2.04 µM; GI50 (DU-145): 3.02 µM

Source: article PMC4689404, “2-Benzazolyl-4-Piperazin-1-Ylsulfonylbenzenecarbohydroxamic Acids as Novel Selective Histone Deacetylase-6 Inhibitors with Antiproliferative Activity” (PLoS ONE, 2015)
